In ChEMBL document CHEMBL2046317, “A-ring dihalogenation increases the cellular activity of combretastatin-templated tetrazoles” (ACS Med Chem Lett, 2012):

Experiments:
SK-OV-3 [1] = experiment: Cell cycle arrest in human SKOV3 cells assessed as accumulation at G2/M phase at 5 nM by FACS analysis; assay type: functional
SK-OV-3 [2] = experiment: Growth inhibition of paclitaxel-resistant human SKOV3 cells after 48 hrs by SRB assay; assay type: functional, cell-based; conditions: SK-OV-3, 48 h
MCF7 = experiment: Growth inhibition of human MCF7 cells after 48 hrs by SRB assay; assay type: functional, cell-based; conditions: MCF7, 48 h
A549 = experiment: Growth inhibition of human A549 cells after 48 hrs by SRB assay; assay type: functional, cell-based; conditions: A549, 48 h
PC-3 = experiment: Growth inhibition of human PC3 cells after 48 hrs by SRB assay; assay type: functional, cell-based; conditions: PC-3, 48 h
DLD-1 = experiment: Growth inhibition of human DLD1 cells after 48 hrs by SRB assay; assay type: functional, cell-based; conditions: DLD-1, 48 h
HT-29 = experiment: Growth inhibition of combretastatin-resistant human HT-29 cells after 48 hrs by SRB assay; assay type: functional, cell-based; conditions: HT-29, 48 h
MRC5 = experiment: Growth inhibition of human MRC5 cells after 48 hrs by SRB assay; assay type: cell-based; conditions: MRC5, 48 h
SK-OV-3 [3] = experiment: Cell cycle arrest in human SKOV3 cells assessed as accumulation at sub-G1 phase at 5 nM by FACS analysis; assay type: functional
Bos taurus = species on record: Bos taurus; experiment: Inhibition of purified bovine tubulin polymerization at 5 uM measured 30 secs intervals for 60 mins by spectrophotometer analysis relative to control
HUVEC = experiment: Antivascular activity against HUVEC after 24 hrs by xCELLigence assays; assay type: functional, cell-based; conditions: Homo sapiens
SK-OV-3 [4] = experiment: Growth inhibition of human SKOV3 cells after 48 hrs by SRB assay; assay type: functional, cell-based; conditions: SK-OV-3, 48 h
[5] = Inhibition of tubulin polymerization

Compound	IC50 (SK-OV-3 [2]) [nM]	IC50 (MCF7) [nM]	IC50 (A549) [nM]	IC50 (PC-3) [nM]	IC50 (DLD-1) [nM]	IC50 (HT-29) [nM]	fold change (FC) (Bos taurus)	IC50 (SK-OV-3 [4]) [nM]	Activity (SK-OV-3 [1]) [%]	IC50 (MRC5) [nM]	Activity (SK-OV-3 [3]) [%]	IC50 (HUVEC) [nM]	IC50 [5] [nM]
COc1ccc(/C=C\c2cc(OC)c(OC)c(OC)c2)cc1O [COMBRETASTATIN A4]	4.2	3	7.9	2.9	3.3	538	3		31	2.8	<5		
COc1ccc(/C=C\c2cc(I)c(OC)c(I)c2)cc1O								5	84			1.9	
COc1ccc(-c2nnnn2-c2cc(OC)c(OC)c(OC)c2)cc1N													2000

More lines, main results first:

IC50 (SK-OV-3 [2]) [nM]	IC50 (MCF7) [nM]	IC50 (A549) [nM]	IC50 (PC-3) [nM]	IC50 (DLD-1) [nM]	IC50 (HT-29) [nM]	fold change (FC) (Bos taurus)	IC50 (SK-OV-3 [4]) [nM]	Compound	Activity (SK-OV-3 [1]) [%]	IC50 (MRC5) [nM]	Activity (SK-OV-3 [3]) [%]	IC50 (HUVEC) [nM]	IC50 [5] [nM]
							5	COc1ccc(/C=C\c2cc(Br)c(OC)c(Br)c2)cc1O	52			3	
11	21	22	9	24	> 500	2.9	9.5	COc1ccc(-c2nnnn2-c2cc(OC)c(OC)c(OC)c2)cc1O	25	12		13.6	
5.6	7	21	2.9	8.2	> 500	1.5	6.1	COc1ccc(-c2nnnn2-c2cc(Br)c(OC)c(Br)c2)cc1O	40	5.7		6.6	
1.4	1.9	2.8	0.5	2.4	513	1.7	2.6	COc1ccc(-c2nnnn2-c2cc(I)c(OC)c(I)c2)cc1O	89	2.2		2.4	
